In ChEMBL document CHEMBL1125994, “Synthesis of 9-[2,2-bis(hydroxymethyl)cycloprop-1-yl]guanine as a potential antiviral agent” (Bioorg Med Chem Lett, 1991):
The source made the active and inactive calls.

How the values were obtained:
Assay type in all cases: functional, cell-based
MRC5 [1] = test: Compound was tested for antiviral activity against HSV-2 (MS) strain at a concentration of 100 ug/mL in MRC-5 (human fibroblast) cells; IA denotes inactive
MRC5 [2] = test: Compound was tested for antiviral activity against HSV-1 (SC16 strain)at a concentration of 100 ug/mL in MRC-5 (human fibroblast) cells; IA denotes inactive
MRC5 [3] = test: Compound was tested for antiviral activity against CMV (cytomegalovirus) (AD169) at a concentration of 100 ug/mL in MRC-5 (human fibroblast) cells; IA denotes inactive
MRC5 [4] = test: Compound was tested for antiviral activity against VZV (Ellen) strain at a concentration of 100 ug/mL in MRC-5 (human fibroblast) cells; IA denotes inactive

Measured: Antiviral activity

Nc1nc(O)c2ncn(C3CC3(CO)CO)c2n1 (centres undefined)
inactive: all assays above
